We go through one molecule from US12234486B2, “Modular, microfluidic, mechanically active bioreactor for 3D, multi-tissue, tissue culture” (University of Pittsburgh—Of the Commonwealth System of …, priority 2013, dated 2025).

Each structure is given as a SMILES string.

The assay concerns chondrocytes in the cartilage chamber. The experiment in a line: RT-PCR marker expression in cartilage (top) chamber of bioreactor after hormone supply. The format is cell-based. As to conditions: progesterone progressively added to estradiol, week 3 and 4 (10 nM, 50 nM), higher when hormones directly applied to cartilage. The method, then:
FIGS. 17-20 are graphs that show differential expression of markers (as determined by RT-PCR) for a control medium that contained no estrogen or progesterone (first bar), and then different concentrations of hormones supplied to one or the other of the bioreactor chambers during week 1 (w1: 0.1 nM estradiol), week 2 (w2: 1 nM estradiol), week 3 (w3: 1 nM estradiol and 10 nM progesterone), and week 4 (w4: 0.1 nM estradiol and 50 nM progesterone). […] FIGS. 17-18 show differential expression of markers (as determined by RT-PCR) for a control medium that contained no estrogen or progesterone (first bar), and then different concentrations of hormones supplied to the chambers during week 1 (w1: 0.1 nM estradiol), week 2 (w2: 1 nM estradiol), week 3 (w3: 1 nM estradiol and 10 nM progesterone), and week 4 (w4: 0.1 nM estradiol and 50 nM progesterone).

For the molecule `CC(=O)[C@H]1CC[C@H]2[C@@H]3CCC4=CC(=O)CC[C@]4(C)[C@H]3CC[C@]12C` [progesterone], the “cartilage anabolic markers (Sox9, Aggrecan)” value was “downregulation is still present”.
